The values below come from US20260027124A1, “SUBSTITUTED IMIDAZO[1,2-A]PYRIDINE COMPOUNDS AND THE USE THEREOF IN THE TREATMENT AND PREVENTION OF FIBROSIS” (MOEXA PHARMACEUTICALS LIMITED, priority 2022, published 2026).

The subject of the assay is TGF-β. Put plainly: TGFβ/SMAD Signaling Pathway SBE Reporter-HEK293 luciferase assay (inhibition of TGF-β). Format: cell-based. As to conditions: SBE reporter-HEK293 cells, human TGFβ1 20 ng/ml; for IC50: 4 h compound pre-incubation, ~18 hours, luciferase luminescence; for inhibitory activity against TGF-β: statement in words. How it is done:
Transforming TGF-β regulates the proliferation and differentiation of fibroblasts, which are the primary constituent cells of fibrous tissues. As such, representative compounds of the present disclosure were tested for their ability to inhibit TGF-β.
• 1. TGFβ/SMAD Signaling Pathway SBE Reporter—HEK293 Cell Line BPS Bioscience Catalog #: 60653 • 2. Human TGFβ1 (BPS Bioscience #90900-1) • 3. SIS3 (Sigma #S0447): inhibitor of TGFβ pathway. Prepare stock solution in DMSO. • 4. Growth medium: MEM medium (Invitrogen #11095-080)+10% FBS (ATCC #30-2020)+1% non-essential amino acids (Lonza #13-114E)+1 mM Na pyruvate (Lonza #13-115E)+1% Penicillin/Streptomycin (ATCC #30-2300)+400 μg/ml of Geneticin (Invitrogen #11811-031). • 5. Assay medium: MEM medium+0.5% FBS+1% non-essential amino acids+1 mM Na pyruvate+1% Pen/Strep • 6. 96-well tissue culture-treated white clear-bottom assay plate (Corning #3610) • 7. ONE-Step™ Luciferase Assay System (BPS, Cat. #60690)
SBE reporter-HEK293 cells were harvested from culture in growth medium and seeded at a density of ˜10,000 cells per well into a white clear-bottom 96-well microplate in 100 μl of assay medium. The plate containing cells were incubated at 37° C. in a CO2 incubator. 24 hours after seeding, cells were washed with 100 μL of assay buffer and treated with three fold serial dilution of compounds in 50 μl assay medium. Cells were incubated at 37° C. in a CO2 incubator for 4 hours. For control wells 50 μl assay medium was added with no inhibitor. Each treatment was done in triplicate. After 4 hours of incubation, 5 μl of human TGFβ1 in assay medium was added to cells (final TGFβ1 concentration=20 ng/ml). 5 μl of assay medium was added to the unstimulated control wells (for determining the basal activity). The plate with cells was incubated at 37° C. in a CO2 incubator overnight (˜18 hours). After 18 hours of incubation Luciferase assay was performed using ONE-Step™ Luciferase Assay System according to the protocol provided: 50 μl of ONE-Step™ Luciferase reagent was added per well and shook at room temperature for ˜10 minutes. Luminescence was measured using a luminometer.

Turning to `COc1cc2c(cc1OC)CN(C(=O)/C=C/c1c(-c3ccc(Cl)cc3)nc3ccccn13)CC2` [Compound 6], the IC50 stood at 5.45 µM and the “inhibitory activity against TGF-β” value is recorded as “showed inhibitory activity”.

Consider `O=C(/C=C/c1c(-c2ccccc2)nc2ccccn12)N1CCOCC1` [Compound 8], for which the IC50 was 3.72 µM and the “inhibitory activity against TGF-β” value was “showed inhibitory activity”.

As to `COc1cc2c(cc1OC)CN(C(=O)/C=C/c1c(-c3ccccc3)nc3ccccn13)C2` [Compound 9], the concentration for half-maximal inhibition (IC50) came to 6.11 µM and the “inhibitory activity against TGF-β” value is given as “showed inhibitory activity”.

Consider `COc1cc2c(cc1OC)CN(C(=O)/C=C/c1c(-c3ccccc3)nc3ccc(F)cn13)C2` [Compound 10], for which the IC50 stood at 4.32 µM and the “inhibitory activity against TGF-β” value was “showed inhibitory activity”.

For the molecule `COc1cc2c(cc1OC)CN(C(=O)/C=C/c1c(-c3ccc(F)cc3)nc3ccccn13)C2` [Compound 11], the IC50 stood at 3.52 µM and the “inhibitory activity against TGF-β” value is on record as “showed inhibitory activity”.

With `COc1cc2c(cc1OC)CN(C(=O)/C=C/c1c(-c3ccccc3)n(C)c3ncccc13)CC2` [SIS3, reference compound], half-maximal inhibition (IC50) required 2.65 µM.

Broadly, the IC50 is the concentration that inhibits the measured activity by half.
